From US12611439B2, “Ionic self-assembling peptides” (3-D MATRIX, LTD., priority 2018, dated 2026)
Peptide text beside a SMILES is read from it.

Legend:
[1] = Net charge of self-assembling peptides in solution; format: physicochemical; conditions: for net charge as a function of pH: around neutral pH; for Net charge at pH 7.5: in solution at pH 7.5
Source text: Several exemplary self-assembling peptides described herein (Table 5; SEQ ID NO:21-40) were designed to have a net charge, positive or negative, when formulated at pH 7.5. In contrast, previously-described self-assembling peptides have a net zero charge at the same pH.

[2] = Viscosity determination at increasing shear rate (shear thinning); format: physicochemical; conditions: pH 7.5
Method: Peptides formulated as aqueous solutions (200 μL), were placed between the plates of a rheometer (DHR-1, TA Instruments, 20 mm plates at a measuring geometry of 500 μm) and the viscosity was measured from 0.001 s^−1 to 100 s^−1 shear rate. Thixotropic Measurements
In some clinical applications, administration of pharmaceutical compositions comprising self-assembling peptides requires exposing the compositions to pressure and/or shear thinning (e.g., during injection through a syringe needle or transferred via a pump-based system). […] To determine the shear thinning properties of pharmaceutical compositions of the self-assembling peptides formulated at pH 7.5, formulations comprising varying ionic strengths were prepared using different concentrations of sodium chloride, and viscosity measured at increasing shear rates. Thixotropic properties of formulations were also determined as well as the storage modulus over time at specific frequencies and pressure.
FIGS. 6-8 show the experimentally determined viscosity of aqueous pharmaceutical compositions comprising either 1% (w/v) KLNL12 (SEQ ID NO:21), 1% (w/v) IQIK13 (SEQ ID NO:28), or 1% (w/v) NLEL12 (SEQ ID NO:33), at pH 7.5. FIGS. 9 and 10 show the experimentally determined viscosity of aqueous pharmaceutical compositions comprising either 1% KLNL12 (SEQ ID NO:21) or 1% NLEL12 (SEQ ID NO:33), and 0.9% NaCl (to mimic physiological conditions) at pH 7.5. […] That is, decreased viscosity with increasing sheer rate. This property may advantageously facilitate application and use of the pharmaceutical compositions (e.g., due to decreased viscosity while pumping) while maintaining a desirable viscosity at a site of application (e.g., where no sheer force is being applied).

[3] = Thixotropic measurements (storage modulus after shear); format: physicochemical; conditions: 1% peptide, 0.9% NaCl, pH 7.5; 1000 1/s shear for 1 min
Method: Peptides formulated as aqueous solutions (200 μL), were placed between the plates of a rheometer (DHR-1, TA Instruments, 20 mm plates at a measuring geometry of 500 μm) and the sample was exposed to a fast plate rotation at 1000 s^−1 of shear rate for 1 minute and the storage modulus was measured at 1 rad s^−1 angular frequency for 10 minutes.
FIGS. 11 and 12 show the thixotropic properties of pharmaceutical compositions comprising 1% KLNL12 (SEQ ID NO:21) or 1% NLEL12 (SEQ ID NO:33), and 0.9% NaCl, at pH 7.5, after shear stress is removed. The aqueous pharmaceutical compositions were flowed at 1000 l/s of shear rate for 1 min and their storage modulus at 10 rad/s of frequency and at 0.1 Pa of stress was tested over time.

[4] = Frequency sweep test (storage modulus) before and after exposure to DMEM; format: physicochemical; conditions: 1% (w/v) peptide, pH 7.5
Method: Peptides formulated as aqueous solutions were placed between the plates of a rheometer (DHR-1, TA Instruments, 20 mm plates at a measuring geometry of 500 μm or 40 mm cone and plate at a measuring geometry of 2.0° of cone angle) and frequency stress sweep tests were performed at 0.1 Hz to 10 Hz of frequency with 0.1% of strain; measurements were performed after 2 minutes of relaxation time at 37° C. To do frequency sweep tests after exposure to Dulbecco's Modified Eagle Medium (DMEM), 10 mL of DMEM was added in chamber surrounding the plates, the sample in plates was submerged into the DMEM and the frequency test was performed as described after 20 minutes.
Rheological properties of aqueous pharmaceutical compositions comprising the exemplary self-assembling peptides KLNL12 (SEQ ID NO:21), KIQI13 (SEQ ID NO:29), or NLEL12 (SEQ ID NO:33) were determined by performing a frequency sweep test over storage modulus.
In some embodiments, peptides formulated as aqueous solutions, volume 700 μl, were placed between the plates of a rheometer (DHR-1, TA Instruments, 40 mm cone and plate at a measuring geometry of 2.0° of cone angle) and frequency sweep tests were performed at 0.1 Hz to 10 Hz of frequency with 0.1% of strain; measurements were performed after 2 minutes of relaxation time at 37° C. In some embodiments, frequency sweep tests were performed after exposure to Dulbecco's Modified Eagle Medium (DMEM), where 10 mL of DMEM was added in chamber surrounding the plates, the sample in plates was submerged into the DMEM and the frequency test was performed as described after 20 minutes.

[5] = tested on: pig stomach submucosa; experiment: Submucosal injection in in vivo porcine model, stomach; conditions: 2 mL of 0.1% (w/v) peptide, 0.9% NaCl, pH 7.5; pig stomach
Method: An in vivo porcine animal model was used to perform endoscopic mucosal and submucosal dissections as described in Uraoka et al. (2009) Drug Des. Devel. Ther. 2:131-8, incorporated herein by reference. Briefly, 2 mL of select peptide formulations were injected in between the […] in stomach of a pig and the submucosa was dissected using electro-knife. The gross appearance of the injection site and of dissected submucosal tissues at the injection sites were analyzed. […] Therefore, an in vivo porcine model system was used to assess the ability of these compositions to induce submucosal elevation upon injection into gastrointestinal submucosa, and the degree of tissue damage. In this model, submucosal injections with liquid compositions were performed and the morphology of the site of injection analyzed. Submucosal injection with aqueous solutions is used during the excision of lesions from the gastrointestinal tract in order to facilitate removal of the lesion by providing a safety cushion during resection (see, e.g., Kim et al. (2013) World J. Gastroenterol. 19(20): 3069-76, incorporated herein by reference). Here, aqueous pharmaceutical compositions comprising three exemplary self-assembling peptides formulated at pH 7.5: KLNL12 (SEQ ID NO:21), NLKL12 (SEQ ID NO:23) or KIQI13 (SEQ ID NO:29), were compared to an aqueous pharmaceutical composition comprising the previously described RADA16 self-assembling peptide (formulated at pH 2.5), a 0.4% solution of sodium hyaluronate (MucoUp®, Boston Scientific Japan K.K., Tokyo, Japan), and saline, pH 7.5.

[6] = tested on: porcine esophagus mucosa; experiment: Submucosal injection in in vivo porcine esophagus; conditions: pig, in vivo
Method: In another embodiment, mucosal aggregation visualized as white precipitate near the injection site was evaluated in an in vivo porcine esophagus.

Compound: CC(=O)N[C@@H](CCCCN)C(=O)N[C@@H](CC(C)C)C(=O)N[C@@H](CC(N)=O)C(=O)N[C@@H](CC(C)C)C(=O)N[C@@H](CCCCN)C(=O)N[C@@H](CC(C)C)C(=O)N[C@@H](CC(N)=O)C(=O)N[C@@H](CC(C)C)C(=O)N[C@@H](CCCCN)C(=O)N[C@@H](CC(C)C)C(=O)N[C@@H](CC(N)=O)C(=O)N[C@@H](CC(C)C)C(N)=O [KLNL12, Ac-KLNLKLNLKLNL-NH2] (Ac-KLNLKLNLKLNL-NH2)
- net charge as a function of pH [1]: about +3
- Net charge at pH 7.5 [1]: +3
- viscosity in response to increasing shear rate ([2]; 1% (w/v) peptide): exhibit sheer thinning
- viscosity in response to increasing shear rate ([2]; 1% peptide, 0.9% NaCl): exhibit sheer thinning
- thixotropic properties (storage modulus over time after shear stress is removed) [3]: exhibited thixotropic properties
- rheological properties (mechanical strength) before and after exposure to DMEM ([4]; 0.9% NaCl): increased after DMEM treatment
- rheological properties (mechanical strength) before and after exposure to DMEM [4]: increased after DMEM treatment
- submucosal elevation after injection [5]: resulted in submucosal elevation
- submucosal elevation over time compared with saline and MucoUp [5]: better submucosal elevation than saline and MucoUp®

Compound: CC(=O)N[C@@H](CC(N)=O)C(=O)N[C@@H](CC(C)C)C(=O)N[C@@H](CCC(=O)O)C(=O)N[C@@H](CC(C)C)C(=O)N[C@@H](CC(N)=O)C(=O)N[C@@H](CC(C)C)C(=O)N[C@@H](CCC(=O)O)C(=O)N[C@@H](CC(C)C)C(=O)N[C@@H](CC(N)=O)C(=O)N[C@@H](CC(C)C)C(=O)N[C@@H](CCC(=O)O)C(=O)N[C@@H](CC(C)C)C(N)=O [NLEL12, Ac-NLELNLELNLEL-NH2] (Ac-NLELNLELNLEL-NH2)
- net charge as a function of pH [1]: about −3
- Net charge at pH 7.5 [1]: −3
- viscosity in response to increasing shear rate ([2]; 1% (w/v) peptide): exhibit sheer thinning
- viscosity in response to increasing shear rate ([2]; 1% peptide, 0.9% NaCl): exhibit sheer thinning
- thixotropic properties (storage modulus over time after shear stress is removed) [3]: exhibited thixotropic properties
- rheological properties (mechanical strength) before and after exposure to DMEM ([4]; 0.9% NaCl): increased after DMEM treatment
- rheological properties (mechanical strength) before and after exposure to DMEM [4]: increased after DMEM treatment
- mucosal aggregation at injection sites [6]: mucosal aggregation was not observed
- Appearance of stomach mucosa ([6]; pH 7.5): clear/transparent
